Measured values taken from patent US11229664B2, “Treatment of myelosuppression” (priority 2012, dated 2022).
Where “and” joins values, the source holds several entries; their conditions need not be identical. Equal entries are not always repeated. Where two headings read alike, the source gives them in different places.

Legend:
[1] = A2780 xenograft study: body weight; format: in vivo, athymic female mice; conditions: Group 2: 48 mg/kg IV QD + 24 mg/kg SC BID, individual mice, listed as PGX ODSH
Experimental: ODSH (50 mg/mL stock concentration) was made by Pyramid Laboratories, Inc. and stored at room temperature until use. As described further below, ODSH was administered either intravenously (IV), at a dose of 48 mg/kg and volume of 10 mL/kg, or subcutaneously (SC) at a dose of 24 mg/kg and volume of 5 ml/kg. Carboplatin obtained from a clinical supplier was stored at 4° C. until use. Carboplatin was administered by intraperitoneal injection (IP) at a dose of 80 mg/kg and volume of 10 mL/kg. Saline solution (0.9% NaCl) was used as a vehicle control for ODSH and administered by the same routes and in the same volumes as ODSH.
Human ovarian cancer cell line A2780 was used in the murine xenograft experiments as follows. Approximately 5×10^6 A2780 cells were used per mouse, injected subcutaneously into the right flank in 0.1 mL of 50% Matrigel/50% media. The study was initiated when tumors reached a size of 90-130 mg. 40 mice were used, 10 per treatment regimen. The mice were normal athymic female mice, aged 6-7 weeks, housed in microisolator cages and maintained under pathogen-free conditions. Tumor and body weights were measured three times per week.
Four treatment groups were studied.

white blood cells = experiment: Clinical trial, metastatic pancreatic cancer: total white blood cell count; format: in vivo, human; conditions: individual patients, ODSH adjunctive to gemcitabine and nab-paclitaxel
Source text: Male and non-pregnant, non-lactating, female patients, aged 18 to 75, with histologically confirmed metastatic adenocarcinoma of the pancreas were enrolled in the trial. […] In addition, patients were screened for blood chemistry levels, including serum creatinine levels within normal limits, serum transaminase levels of […] the upper limit of normal, and bilirubin levels of 1.5 times the upper limit of normal […].
Treatment consisted of a series of 28-day cycles, wherein the last day of one cycle (e.g., day 28, cycle 1) was immediately followed by the first day of the next cycle (e.g., day 1, cycle 2). In each 28-day treatment cycle, patients were dosed at days 1, 8, and 15 (three weeks of medication followed by one week of rest) as follows. First, nab-paclitaxel at 125 mg/m^2 was administered as an intravenous infusion over 30 minutes. […] Nab-paclitaxel and gemcitabine therapy was given as described in the prescribing information for Abraxane® and Gemzar®. See also, Von Hoff et al., 2011, J. Clinical Oncology 29:1-7). […]
An initial run-in period was conducted in which ten patients were treated with the gemcitabine, nab-paclitaxel, and ODSH regimen described above. After all ten patients had completed at least one 28-day cycle, the data were reviewed and an open-label randomized study initiated, with two arms (ODSH arm and Control arm). In the ODSH arm, the dosing regimen was the same as in the run-in period (gemcitabine, nab-paclitaxel, and ODSH). In the Control arm, patients were given the same gemcitabine and nab-paclitaxel regimen as in the run-in period, but without ODSH.
Blood was drawn before treatment administration on days 1, 8, and 15 of each 28 day cycle. Platelet counts, total white blood cell counts, and absolute neutrophil counts were performed. Grading of thrombocytopenia and/or neutropenia was performed according to the following standards: […]

[2] = for Deaths: N = 10 per group
Experimental: All experiments were conducted on female athymic nude mice (Hsd:Athymic Nude-Foxn1nu) supplied by Harlan (Indianapolis, Ind.). Mice were received at four weeks of age, 12-15 grams in weight, and were acclimated for seven days prior to handling. The mice were housed in microisolator cages (Lab Products, Seaford, Del.) and maintained under specific pathogen-free conditions. All procedures were carried out under appropriate institutional guidelines for animal care.
Seven days following inoculation, tumors were measured using calipers and tumor weight was calculated using the animal study management software. […] Body weights were recorded when the mice were randomized and were taken twice weekly thereafter in conjunction with tumor measurements, on each of Days 1, 4, 8, 11, 15, 18, 22, 26, 30, 33, and 36.
The study was terminated when the vehicle control reached an endpoint of 1500 mg, on Day 36.

[3] = Table 13, first column group, headed Day 22
[4] = Table 13, second column group, headed Day 26
[5] = ten mice per group, BxPC-3 xenograft study

substantially 2-O, 3-O desulfated heparin [ODSH]
Individual weights, Day 21 Weight ([1]; Day 21): 23.7 g and 24.0 g (2×) and 23.2 g and 26.4 g and 24.1 g and 20.4 g and 21.9 g (2×) and 22.9 g
Day 25 Weight change ([1]; Day 25): 19.7% and 31.0% and 9.6% and 18.2% and 14.8%
Individual weights, Day 25 Weight ([1]; Day 25): 24.3 g and 28.3 g and 21.7 g and 23.4 g and 24.0 g
Day 28 Weight change ([1]; Day 28): 23.2% and 32.9% and 15.7% and 20.2% and 15.8%
Individual weights, Day 28 Weight ([1]; Day 28): 29.0 g and 28.7 g and 22.9 g and 23.8 g and 24.2 g
White Blood Cell Counts (white blood cells; Cycle 1 Day 1): 6.8 ×10^3/μl blood and 7.7 ×10^3/μl blood and 7.3 ×10^3/μl blood and 5.0 ×10^3/μl blood and 4.6 ×10^3/μl blood and 6.5 ×10^3/μl blood and 5.7 ×10^3/μl blood and 8.7 ×10^3/μl blood and 6.0 ×10^3/μl blood and 7.2 ×10^3/μl blood
White Blood Cell Counts (white blood cells; Cycle 1 Day 8): 4.4 ×10^3/μl blood and 6.2 ×10^3/μl blood and 2.7 ×10^3/μl blood and 5.3 ×10^3/μl blood and 2.8 ×10^3/μl blood and 5.1 ×10^3/μl blood and 2.3 ×10^3/μl blood and 5.7 ×10^3/μl blood and 3.4 ×10^3/μl blood and 4.1 ×10^3/μl blood
White Blood Cell Counts (white blood cells; Cycle 1 Day 15): 4.2 ×10^3/μl blood and 5.1 ×10^3/μl blood and 2.1 ×10^3/μl blood and 6.0 ×10^3/μl blood and 2.0 ×10^3/μl blood and 3.2 ×10^3/μl blood and 2.7 ×10^3/μl blood (2×) and 5.4 ×10^3/μl blood and 1.5 ×10^3/μl blood
White Blood Cell Counts (white blood cells; Cycle 2 Day 1): 4.9 ×10^3/μl blood and 7.8 ×10^3/μl blood and 17.8 ×10^3/μl blood and 5.9 ×10^3/μl blood and 6.5 ×10^3/μl blood and 5.7 ×10^3/μl blood and 11.0 ×10^3/μl blood and 3.4 ×10^3/μl blood and 10.8 ×10^3/μl blood
White Blood Cell Counts (white blood cells; Cycle 2 Day 8): 10.2 ×10^3/μl blood and 4.5 ×10^3/μl blood and 4.6 ×10^3/μl blood and 2.9 ×10^3/μl blood and 6.4 ×10^3/μl blood
White Blood Cell Counts (white blood cells; Cycle 2 Day 15): 3.4 ×10^3/μl blood and 4.3 ×10^3/μl blood and 5.4 ×10^3/μl blood and 2.4 ×10^3/μl blood and 4.4 ×10^3/μl blood
White Blood Cell Counts (white blood cells; Cycle 3 Day 1): 6.0 ×10^3/μl blood and 7.6 ×10^3/μl blood and 4.8 ×10^3/μl blood and 5.8 ×10^3/μl blood
White Blood Cell Counts (white blood cells; Cycle 3 Day 8): 4.8 ×10^3/μl blood and 2.7 ×10^3/μl blood
White Blood Cell Counts (white blood cells; Cycle 3 Day 15): 4.3 ×10^3/μl blood
White Blood Cell Counts (white blood cells; Cycle 4 Day 1): 8.5 ×10^3/μl blood
White Blood Cell Counts (white blood cells; Cycle 4 Day 8): 6.0 ×10^3/μl blood
White Blood Cell Counts (white blood cells; Screen): 8.5 ×10^3/μl blood and 6.7 ×10^3/μl blood (2×) and 6.3 ×10^3/μl blood and 6.5 ×10^3/μl blood and 10.8 ×10^3/μl blood and 10.6 ×10^3/μl blood and 6.0 ×10^3/μl blood and 7.3 ×10^3/μl blood
Day by which the mice recovered their weight ([2]; BxPC-3 xenograft study): ≤ 22 days
Day on which maximum weight loss was reached ([2]; BxPC-3 xenograft study): 11 days
Tolerability / toxicity of the treatment regimen (in words) ([2]; BxPC-3 xenograft study, doses of Table 1): well-tolerated
Average Weight ([2]; Day 1): 21.54 g
% Weight Loss or Gain ([2]; Day 4): −1.67%
Average Weight ([2]; Day 4): 21.18 g
% Weight Loss or Gain ([2]; Day 8): −1.67%
Average Weight ([2]; Day 8): 21.18 g
% Weight Loss or Gain ([2]; Day 11): −2.74%
Average Weight ([2]; Day 11): 20.95 g
% Weight Loss or Gain ([2]; Day 15): −2.14%
Average Weight ([2]; Day 15): 21.08 g
% Weight Loss or Gain ([2]; Day 18): −2.32%
Average Weight ([2]; Day 18): 21.04 g
% Weight Loss or Gain ([2]; Day 22 (Table 12)): 0.09%
Average Weight ([2]; Day 22 (Table 12)): 21.56 g
% Weight Loss or Gain ([2]; Day 26 (Table 12)): 2.79%
Average Weight ([2]; Day 26 (Table 12)): 22.14 g
% Weight Loss or Gain [2, 3]: 4.60%
Average Weight [2, 3]: 22.53 g
% Weight Loss or Gain [2, 4]: 4.27%
Average Weight [2, 4]: 22.46 g
Deaths ([2]; Total deaths on or before Day 26): 0
Deaths ([2]; Total deaths on or before Day 36): 0
Maximum weight loss ([2]; body weight of mice, BxPC-3 xenograft study): 2.7%
Starting Weight ([2]; group mean body weight at start, dose, schedule and route per group as in table): 21.54 g
% Weight Loss or Gain ([2]; mouse, in vivo): 4.92%
Average Weight ([2]; mouse, in vivo): 22.60 g
Mice with bruising on the tails or abdomen (site of injection) [2, 5]: All ten
Mice with swelling of the tail [2, 5]: One of the ten
